In test [1] the target is protein C activator of the present invention (Agkistrodon contortrix contortrix, UniProt P09872). The experiment in a line: biochemical. In kind it is biochemical.
Test [2] concerns protein C activator of the present invention. Nature of the test: biochemical. In kind it is biochemical, Agkistrodon contortrix contortrix.
The next test relates to Protac®. As to conditions: cited from earlier work.
The test system of test [3] is protein C activator of Klein et al. As to conditions: cited from earlier work.
A further test deals with T1, Factor VIIIa (Homo sapiens, UniProt P00451).
T1 sequence (P00451 20-391 limits assumed): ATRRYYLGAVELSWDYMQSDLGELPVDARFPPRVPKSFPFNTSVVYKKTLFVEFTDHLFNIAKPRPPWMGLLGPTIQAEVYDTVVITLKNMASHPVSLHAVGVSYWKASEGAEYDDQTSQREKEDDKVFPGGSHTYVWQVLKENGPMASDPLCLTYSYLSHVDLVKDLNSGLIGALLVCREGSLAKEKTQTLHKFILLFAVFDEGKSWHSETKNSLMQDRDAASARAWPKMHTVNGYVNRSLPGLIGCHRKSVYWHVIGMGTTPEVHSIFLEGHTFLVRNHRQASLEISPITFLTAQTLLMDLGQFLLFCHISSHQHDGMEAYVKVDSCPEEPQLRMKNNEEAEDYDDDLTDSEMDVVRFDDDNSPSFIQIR
T1 sequence (P00451 392-759 limits assumed): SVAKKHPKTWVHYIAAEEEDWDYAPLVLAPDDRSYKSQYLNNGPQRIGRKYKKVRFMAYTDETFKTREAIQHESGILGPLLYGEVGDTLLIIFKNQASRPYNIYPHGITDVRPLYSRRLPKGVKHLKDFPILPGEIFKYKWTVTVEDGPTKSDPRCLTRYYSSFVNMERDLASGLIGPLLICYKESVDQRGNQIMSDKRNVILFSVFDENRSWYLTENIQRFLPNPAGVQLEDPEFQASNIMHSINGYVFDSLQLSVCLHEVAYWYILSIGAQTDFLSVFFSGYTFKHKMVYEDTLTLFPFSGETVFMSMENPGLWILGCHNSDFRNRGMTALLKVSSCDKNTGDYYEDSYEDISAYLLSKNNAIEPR
T1 sequence (P00451 1709-2351 limits assumed): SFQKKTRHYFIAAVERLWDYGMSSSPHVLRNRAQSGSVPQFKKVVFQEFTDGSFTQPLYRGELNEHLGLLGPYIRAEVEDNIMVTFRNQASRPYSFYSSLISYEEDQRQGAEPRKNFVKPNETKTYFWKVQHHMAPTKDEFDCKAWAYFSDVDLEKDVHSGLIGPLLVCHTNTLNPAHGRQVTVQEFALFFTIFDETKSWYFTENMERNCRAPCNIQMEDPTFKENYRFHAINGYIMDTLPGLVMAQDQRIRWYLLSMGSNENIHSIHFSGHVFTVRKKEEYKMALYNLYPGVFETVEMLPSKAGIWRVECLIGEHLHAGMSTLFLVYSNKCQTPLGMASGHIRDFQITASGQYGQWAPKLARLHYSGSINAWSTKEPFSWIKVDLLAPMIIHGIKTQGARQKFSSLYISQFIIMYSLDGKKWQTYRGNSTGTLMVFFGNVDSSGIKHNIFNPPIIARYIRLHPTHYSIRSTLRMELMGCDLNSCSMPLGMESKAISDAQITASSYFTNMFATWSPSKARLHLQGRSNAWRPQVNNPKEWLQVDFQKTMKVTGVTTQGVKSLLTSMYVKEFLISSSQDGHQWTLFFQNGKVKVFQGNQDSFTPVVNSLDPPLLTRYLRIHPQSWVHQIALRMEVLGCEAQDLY
The experiment in a line: Inactivation of Factor VIIIa in vitro. In kind it is biochemical. The note with it: picomolar concentrations.

Test [4] has as its system plasminogen activator inhibitor (PAI). Nature of the test: Neutralization of plasminogen activator inhibitor activity in vitro. In kind it is biochemical.
A short description of test [5]: Amidolysis of chromogenic substrates. The format is biochemical.

Consider seven molecules from US4908314A (priority 1987, dated 1990).

Chain of protein C activator of the present invention (Agkistrodon contortrix contortrix, UniProt P09872) (P09872 whole entry, looked up): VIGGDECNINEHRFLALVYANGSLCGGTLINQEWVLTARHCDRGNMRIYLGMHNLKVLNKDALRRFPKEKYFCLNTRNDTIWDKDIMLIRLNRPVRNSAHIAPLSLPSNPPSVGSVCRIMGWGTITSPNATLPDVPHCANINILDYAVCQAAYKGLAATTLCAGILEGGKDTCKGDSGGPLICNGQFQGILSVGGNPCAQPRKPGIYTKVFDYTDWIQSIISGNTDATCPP

By Ki is commonly meant the equilibrium dissociation constant of an inhibitor or competing ligand from its target. A higher Ki goes with lower affinity. As for `NC(N)=NCCC[C@H](NC(=O)[C@@H]1CCCN1C(=O)[C@H](N)Cc1ccccc1)C(=O)CCl` [D-Phe-Pro-Arg-chloromethylketone], in test [1], the “Inhibition of activity of the activator by serine protease inhibitors” value (“Inhibition of activity of the activator” below) is listed as “inhibited” and the affinity, expressed as Ki, was 34 µM. Further, in test [2], the “fold higher Ki than the Ki of thrombin inhibition” value is “approximately 500 fold”. `NC(=O)CI` [iodoacetamide]: the “Inhibition of activity of Protac” value with Protac® is “not inhibited”. Take `N=C(N)Nc1ccc(C(=O)Oc2ccc([N+](=O)[O-])cc2)cc1` [p-nitrophenyl, p-guanidinobenzoate]: in test [1], the “Inhibition of activity of the activator” value was “inhibited”. Same read-out and setting: then `O=S(=O)(F)Cc1ccccc1` [phenylmethylsulphonylfluoride], with “inhibited”.

Take Antithrombin III: the “Inhibition of activity of the Klein et al activator” value in test [3] is on record as “no effect”. Take activated protein C: the “inactivation of Factor VIIIa” value at Factor VIIIa was “rapid inactivation”. In test [4], the “neutralization of PAI activity” value is “neutralization”. For the same molecule, in test [5], the “activity of amidolysis of chromogenic substrates compared with thrombin-activated protein C” value was “approximately the same activity”.

B1: soybean trypsin inhibitor: serine protease inhibitor protein (protein, UniProt P01070 25-205, looked up)
Trypsin inhibitor A: DFVLDNEGNPLENGGTYYILSDITAFGGIRAAPTGNERCPLTVVQSRNELDKGIGTIISSPYRIRFIAEGHPLSLKFDSFAVIMLCVGIPTEWSVVEDLPEGPAVKIGENKDAMDGWFRLERVSDDEFNNYKLVFCPQQAEDDKCGDIGISIDHDDGTRRLVVSKNKPLVVQFQKLDKESL
Turning to B1, in test [1], the “Inhibition of activity of the activator” value was “inhibited”. Besides, in test [3], the “Inhibition of activity of the Klein et al activator” value is “inhibited”.
